In the supplement of paper PMC10307832:

What was measured:
Assay in all cases: relative viability (nuclei count vs DMSO), 5 days (fraction); higher = more cells survive
NCI-H1755 = system: NCI-H1755
How it was run: (§1)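 Relative viability was taken as the ratio of nuclei in treated wells to nuclei in vehicle wells. Lung cancer cell lines in 1536-well plates received compounds by pin tool one day after seeding, either one drug alone or a fixed anchor-drug dose plus five library-drug doses (not always all listed) in √10 steps. Nuclei were counted on 4× images after 5 days of treatment, and values are medians of duplicate plates.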

LC-2-ad = system: LC-2-ad
How it was run: as §1

NCI-H2023 = system: NCI-H2023
How it was run: as §1

NCI-H1395 = system: NCI-H1395
How it was run: as §1

NCI-H650 = system: NCI-H650
How it was run: as §1

NCI-H3122 = system: NCI-H3122
How it was run: as §1

NCI-H727 = system: NCI-H727
How it was run: as §1

BEN = system: BEN
How it was run: as §1

NCI-H1563 = system: NCI-H1563
How it was run: as §1

NCI-H2170 = system: NCI-H2170
How it was run: as §1

HCC-15 = system: HCC-15
How it was run: as §1

SW 900 = system: SW 900
How it was run: as §1

SW 1573 = system: SW 1573
How it was run: as §1

NCI-H1915 = system: NCI-H1915
How it was run: as §1

EMC-BAC-2 = system: EMC-BAC-2
How it was run: as §1

LU99A = system: LU99A
How it was run: as §1

NCI-H1734 = system: NCI-H1734
How it was run: as §1

NCI-H358 = system: NCI-H358
How it was run: as §1

HCC-44 = system: HCC-44
How it was run: as §1

NCI-H2126 = system: NCI-H2126
How it was run: as §1

NCI-H1437 = system: NCI-H1437
How it was run: as §1

HOP-62 = system: HOP-62
How it was run: as §1

`CCNC(=O)c1noc(-c2cc(C(C)C)c(O)cc2O)c1-c1ccc(CN2CCOCC2)cc1` [Luminespib] + N=C(N)NC(=N)NCCc1ccccc1 [Phenformin] (partner 250 µM) showed a relative viability (NCI-H1755; first compound 0.002 µM) of 0.609, a relative viability (NCI-H1755; first compound 0.006325 µM) of 0.552 and a relative viability (NCI-H1755; first compound 0.02 µM) of 0.552. For the same molecule, the relative viability (NCI-H1755; first compound 0.06325 µM) was 0.268, the relative viability (NCI-H1755; first compound 0.2 µM) was 0.14 and the relative viability (LC-2-ad; first compound 0.002 µM) was 0.531. It also gave a relative viability (LC-2-ad; first compound 0.006325 µM) of 0.497, a relative viability (LC-2-ad; first compound 0.02 µM) of 0.551 and a relative viability (LC-2-ad; first compound 0.06325 µM) of 0.25. For the same molecule, the relative viability (LC-2-ad; first compound 0.2 µM) was 0.231, the relative viability (NCI-H2023; first compound 0.002 µM) was 0.39 and the relative viability (NCI-H2023; first compound 0.006325 µM) was 0.376. For the same molecule, the relative viability (NCI-H2023; first compound 0.02 µM) was 0.287, the relative viability (NCI-H2023; first compound 0.06325 µM) was 0.0664 and the relative viability (NCI-H2023; first compound 0.2 µM) was 0.0658. For the same molecule, the relative viability (NCI-H1395; first compound 0.002 µM) was 0.448, the relative viability (NCI-H1395; first compound 0.006325 µM) was 0.401 and the relative viability (NCI-H1395; first compound 0.02 µM) was 0.39. For the same molecule, the relative viability (NCI-H1395; first compound 0.06325 µM) was 0.326, the relative viability (NCI-H1395; first compound 0.2 µM) was 0.335 and the relative viability (NCI-H650; first compound 0.002 µM) was 0.437. For the same molecule, the relative viability (NCI-H650; first compound 0.006325 µM) was 0.453, the relative viability (NCI-H650; first compound 0.02 µM) was 0.391 and the relative viability (NCI-H650; first compound 0.06325 µM) was 0.213. It also gave a relative viability (NCI-H650; first compound 0.2 µM) of 0.121, a relative viability (NCI-H3122; first compound 0.002 µM) of 0.427 and a relative viability (NCI-H3122; first compound 0.006325 µM) of 0.32. It also gave a relative viability (NCI-H3122; first compound 0.02 µM) of 0.132, a relative viability (NCI-H3122; first compound 0.06325 µM) of 0.0959 and a relative viability (NCI-H3122; first compound 0.2 µM) of 0.0895. It also gave a relative viability (NCI-H727; first compound 0.002 µM) of 0.564, a relative viability (NCI-H727; first compound 0.006325 µM) of 0.398 and a relative viability (NCI-H727; first compound 0.02 µM) of 0.361. For the same molecule, the relative viability (NCI-H727; first compound 0.06325 µM) was 0.318, the relative viability (NCI-H727; first compound 0.2 µM) was 0.175 and the relative viability (BEN; first compound 0.002 µM) was 0.259. It also gave a relative viability (BEN; first compound 0.006325 µM) of 0.268, a relative viability (BEN; first compound 0.02 µM) of 0.273 and a relative viability (BEN; first compound 0.06325 µM) of 0.216. For the same molecule, the relative viability (BEN; first compound 0.2 µM) was 0.199, the relative viability (NCI-H1563; first compound 0.002 µM) was 0.66 and the relative viability (NCI-H1563; first compound 0.006325 µM) was 0.649. For the same molecule, the relative viability (NCI-H1563; first compound 0.02 µM) was 0.597, the relative viability (NCI-H1563; first compound 0.06325 µM) was 0.455 and the relative viability (NCI-H1563; first compound 0.2 µM) was 0.465. It also gave a relative viability (NCI-H2170; first compound 0.002 µM) of 0.405, a relative viability (NCI-H2170; first compound 0.006325 µM) of 0.398 and a relative viability (NCI-H2170; first compound 0.02 µM) of 0.376. The relative viability (NCI-H2170; first compound 0.06325 µM) was 0.236, the relative viability (NCI-H2170; first compound 0.2 µM) was 0.158 and the relative viability (HCC-15; first compound 0.002 µM) was 0.429. For the same molecule, the relative viability (HCC-15; first compound 0.006325 µM) was 0.405, the relative viability (HCC-15; first compound 0.02 µM) was 0.311 and the relative viability (HCC-15; first compound 0.06325 µM) was 0.162. For the same molecule, the relative viability (HCC-15; first compound 0.2 µM) was 0.114, the relative viability (SW 900; first compound 0.002 µM) was 0.625 and the relative viability (SW 900; first compound 0.006325 µM) was 0.489. The relative viability (SW 900; first compound 0.02 µM) was 0.344, the relative viability (SW 900; first compound 0.06325 µM) was 0.0721 and the relative viability (SW 900; first compound 0.2 µM) was 0.124. It also gave a relative viability (SW 1573; first compound 0.002 µM) of 0.39, a relative viability (SW 1573; first compound 0.006325 µM) of 0.339 and a relative viability (SW 1573; first compound 0.02 µM) of 0.262. For the same molecule, the relative viability (SW 1573; first compound 0.06325 µM) was 0.0845, the relative viability (SW 1573; first compound 0.2 µM) was 0.0847 and the relative viability (NCI-H1915; first compound 0.002 µM) was 0.361. For the same molecule, the relative viability (NCI-H1915; first compound 0.006325 µM) was 0.352, the relative viability (NCI-H1915; first compound 0.02 µM) was 0.407 and the relative viability (NCI-H1915; first compound 0.06325 µM) was 0.293. For the same molecule, the relative viability (NCI-H1915; first compound 0.2 µM) was 0.0788, the relative viability (EMC-BAC-2; first compound 0.002 µM) was 0.529 and the relative viability (EMC-BAC-2; first compound 0.006325 µM) was 0.48. For the same molecule, the relative viability (EMC-BAC-2; first compound 0.02 µM) was 0.429, the relative viability (EMC-BAC-2; first compound 0.06325 µM) was 0.254 and the relative viability (EMC-BAC-2; first compound 0.2 µM) was 0.175. The relative viability (LU99A; first compound 0.002 µM) was 0.818, the relative viability (LU99A; first compound 0.006325 µM) was 0.71 and the relative viability (LU99A; first compound 0.02 µM) was 0.535. For the same molecule, the relative viability (LU99A; first compound 0.06325 µM) was 0.167, the relative viability (LU99A; first compound 0.2 µM) was 0.125 and the relative viability (NCI-H1734; first compound 0.002 µM) was 0.464. For the same molecule, the relative viability (NCI-H1734; first compound 0.006325 µM) was 0.356, the relative viability (NCI-H1734; first compound 0.02 µM) was 0.3 and the relative viability (NCI-H1734; first compound 0.06325 µM) was 0.103. The relative viability (NCI-H1734; first compound 0.2 µM) was 0.116, the relative viability (NCI-H358; first compound 0.002 µM) was 0.348 and the relative viability (NCI-H358; first compound 0.006325 µM) was 0.356. For the same molecule, the relative viability (NCI-H358; first compound 0.02 µM) was 0.152, the relative viability (NCI-H358; first compound 0.06325 µM) was 0.0546 and the relative viability (NCI-H358; first compound 0.2 µM) was 0.0585. The relative viability (HCC-44; first compound 0.002 µM) was 0.245, the relative viability (HCC-44; first compound 0.006325 µM) was 0.163 and the relative viability (HCC-44; first compound 0.02 µM) was 0.119. The relative viability (HCC-44; first compound 0.06325 µM) was 0.0759, the relative viability (HCC-44; first compound 0.2 µM) was 0.11 and the relative viability (NCI-H2126; first compound 0.002 µM) was 0.523. It also gave a relative viability (NCI-H2126; first compound 0.006325 µM) of 0.506, a relative viability (NCI-H2126; first compound 0.02 µM) of 0.497 and a relative viability (NCI-H2126; first compound 0.06325 µM) of 0.279. For the same molecule, the relative viability (NCI-H2126; first compound 0.2 µM) was 0.307, the relative viability (NCI-H1437; first compound 0.002 µM) was 0.325 and the relative viability (NCI-H1437; first compound 0.006325 µM) was 0.3. It also gave a relative viability (NCI-H1437; first compound 0.02 µM) of 0.358, a relative viability (NCI-H1437; first compound 0.06325 µM) of 0.173 and a relative viability (NCI-H1437; first compound 0.2 µM) of 0.154. For the same molecule, the relative viability (HOP-62; first compound 0.002 µM) was 0.674, the relative viability (HOP-62; first compound 0.006325 µM) was 0.721 and the relative viability (HOP-62; first compound 0.02 µM) was 0.696. It also gave a relative viability (HOP-62; first compound 0.06325 µM) of 0.364 and a relative viability (HOP-62; first compound 0.2 µM) of 0.165.
